The values below come from patent publication US6544990B2, “Substituted quinolinecarboxamides as antiviral agents” (Pharmacia & Upjohn Company, priority 2001, dated 2003).

The target of one data set is VZV polymerase (Varicella-zoster virus, UniProt P09252). In words: Polymerase scintillation proximity assay (SPA), VZV. It counts as biochemical.
Another data set deals with T1, HCMV polymerase (Human cytomegalovirus, UniProt P08546).
T1 construct: made in house; host or cells: recombinant baculovirus-infected SF-9 cells
Kind of data set: HCMV polymerase scintillation proximity assay (SPA). It counts as biochemical. Conditions: CMV polymerase. As to the method: The HCMV polymerase assay is performed using a scintillation proximity assay (SPA) as described in several references, such as N. D. Cook, et al., Pharmaceutical Manufacturing International, pages 49-53 (1992); K. Takeuchi, Laboratory Practice, September issue (1992); U.S. Pat. No. 4,568,649 (1986); which are incorporated by reference herein. Reactions are performed in 96-well plates. The assay is conducted in 100 μl volume with 5.4 mM HEPES (pH 7.5), 11.7 mM KCl, 4.5 mM MgCl2, 0.36 mg/ml BSA, and 90 nM 3H-dTTP. Assays are run with and without CHAPS, (3-[(3-Cholamidopropyl)-dimethylammonio]-1-propane-sulfonate) at a final concentration of 2 mM. HCMV polymerase is diluted in enzyme dilution buffer containing 50% glycerol, 250 mM NaCl, 10 mM HEPES (pH 7.5), 100 μg/ml BSA, and 0.01% sodium azide. The HCMV polymerase, which is expressed in recombinant baculovirus-infected SF-9 cells and purified according to literature procedures, is added at 10% (or 10 μl ) of the final reaction volume, i.e., 100 μl. Compounds are diluted in 50% DMSO and 10 μl are added to each well. Control wells contain an equivalent concentration of DMSO. Unless noted otherwise, reactions are initiated via the addition of 6 nM biotinylated poly(dA)-oligo(dT) template/primer to reaction mixtures containing the enzyme, substrate, and compounds of interest. Plates are incubated in a 25 C or 37 C H20 bath and terminated via the addition of 40 μl/reaction of 0.5 M EDTA (pH 8) per well. Reactions are terminated within the time-frame during which substrate incorporation is linear and varied depending upon the enzyme and conditions used, i.e., 30 min. for HCMV polymerase. Ten μl of streptavidin-SPA beads (20 mg/mil in PBS/10% glycerol) are added following termination of the reaction. Plates are incubated 10 min. at 37 C, then equilibrated to room temperature, and counted on a Packard Topcount. Linear regressions are performed and IC50's are calculated using computer software.
A modified version of the above HCMV polymerase assay is performed as described above, but with the following changes: Compounds are diluted in 100% DMSO until final dilution into assay buffer. In the previous assay, compounds are diluted in 50% DMSO. 4.5 mM dithiotherotol (DTT) is added to the polymerase buffer.

The target in the next data set is HSV polymerase (Human herpesvirus 1, UniProt P04293). Kind of data set: Polymerase scintillation proximity assay (SPA), HSV. It counts as biochemical.

Each structure is given as a SMILES string.

T1 sequence (P08546 whole entry): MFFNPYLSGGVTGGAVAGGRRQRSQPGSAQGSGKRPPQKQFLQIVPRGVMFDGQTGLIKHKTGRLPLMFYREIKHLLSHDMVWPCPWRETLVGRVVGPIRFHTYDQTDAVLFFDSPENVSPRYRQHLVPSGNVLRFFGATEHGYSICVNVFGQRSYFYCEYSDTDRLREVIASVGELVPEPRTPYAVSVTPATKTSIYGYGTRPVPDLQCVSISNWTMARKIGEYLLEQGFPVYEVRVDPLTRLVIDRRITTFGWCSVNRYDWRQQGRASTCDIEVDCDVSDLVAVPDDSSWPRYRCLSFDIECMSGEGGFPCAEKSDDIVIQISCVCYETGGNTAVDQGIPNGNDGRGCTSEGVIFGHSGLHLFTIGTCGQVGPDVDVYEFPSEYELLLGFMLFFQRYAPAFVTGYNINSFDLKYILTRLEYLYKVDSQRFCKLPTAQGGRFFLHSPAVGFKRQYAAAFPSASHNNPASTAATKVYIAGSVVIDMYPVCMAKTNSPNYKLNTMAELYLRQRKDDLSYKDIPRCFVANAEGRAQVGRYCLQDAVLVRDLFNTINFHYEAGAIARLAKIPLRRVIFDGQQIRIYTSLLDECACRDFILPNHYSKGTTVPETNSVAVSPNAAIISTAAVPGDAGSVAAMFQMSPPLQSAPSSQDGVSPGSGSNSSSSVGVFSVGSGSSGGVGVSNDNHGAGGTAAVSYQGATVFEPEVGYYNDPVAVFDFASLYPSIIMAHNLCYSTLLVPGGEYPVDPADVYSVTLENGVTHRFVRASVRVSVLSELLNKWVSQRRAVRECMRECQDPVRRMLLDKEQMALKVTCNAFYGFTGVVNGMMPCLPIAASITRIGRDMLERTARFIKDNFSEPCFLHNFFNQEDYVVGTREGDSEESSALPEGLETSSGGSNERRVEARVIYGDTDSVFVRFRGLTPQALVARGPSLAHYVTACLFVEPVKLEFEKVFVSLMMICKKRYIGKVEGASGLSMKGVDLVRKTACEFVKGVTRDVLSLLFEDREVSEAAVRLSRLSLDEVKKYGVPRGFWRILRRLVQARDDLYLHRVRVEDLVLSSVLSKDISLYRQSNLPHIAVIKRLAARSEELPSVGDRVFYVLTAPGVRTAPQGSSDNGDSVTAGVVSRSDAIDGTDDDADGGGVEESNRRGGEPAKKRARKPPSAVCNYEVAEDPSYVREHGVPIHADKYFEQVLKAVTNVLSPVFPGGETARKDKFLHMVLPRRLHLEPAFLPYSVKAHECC
VZV polymerase, sequence (P09252 whole entry): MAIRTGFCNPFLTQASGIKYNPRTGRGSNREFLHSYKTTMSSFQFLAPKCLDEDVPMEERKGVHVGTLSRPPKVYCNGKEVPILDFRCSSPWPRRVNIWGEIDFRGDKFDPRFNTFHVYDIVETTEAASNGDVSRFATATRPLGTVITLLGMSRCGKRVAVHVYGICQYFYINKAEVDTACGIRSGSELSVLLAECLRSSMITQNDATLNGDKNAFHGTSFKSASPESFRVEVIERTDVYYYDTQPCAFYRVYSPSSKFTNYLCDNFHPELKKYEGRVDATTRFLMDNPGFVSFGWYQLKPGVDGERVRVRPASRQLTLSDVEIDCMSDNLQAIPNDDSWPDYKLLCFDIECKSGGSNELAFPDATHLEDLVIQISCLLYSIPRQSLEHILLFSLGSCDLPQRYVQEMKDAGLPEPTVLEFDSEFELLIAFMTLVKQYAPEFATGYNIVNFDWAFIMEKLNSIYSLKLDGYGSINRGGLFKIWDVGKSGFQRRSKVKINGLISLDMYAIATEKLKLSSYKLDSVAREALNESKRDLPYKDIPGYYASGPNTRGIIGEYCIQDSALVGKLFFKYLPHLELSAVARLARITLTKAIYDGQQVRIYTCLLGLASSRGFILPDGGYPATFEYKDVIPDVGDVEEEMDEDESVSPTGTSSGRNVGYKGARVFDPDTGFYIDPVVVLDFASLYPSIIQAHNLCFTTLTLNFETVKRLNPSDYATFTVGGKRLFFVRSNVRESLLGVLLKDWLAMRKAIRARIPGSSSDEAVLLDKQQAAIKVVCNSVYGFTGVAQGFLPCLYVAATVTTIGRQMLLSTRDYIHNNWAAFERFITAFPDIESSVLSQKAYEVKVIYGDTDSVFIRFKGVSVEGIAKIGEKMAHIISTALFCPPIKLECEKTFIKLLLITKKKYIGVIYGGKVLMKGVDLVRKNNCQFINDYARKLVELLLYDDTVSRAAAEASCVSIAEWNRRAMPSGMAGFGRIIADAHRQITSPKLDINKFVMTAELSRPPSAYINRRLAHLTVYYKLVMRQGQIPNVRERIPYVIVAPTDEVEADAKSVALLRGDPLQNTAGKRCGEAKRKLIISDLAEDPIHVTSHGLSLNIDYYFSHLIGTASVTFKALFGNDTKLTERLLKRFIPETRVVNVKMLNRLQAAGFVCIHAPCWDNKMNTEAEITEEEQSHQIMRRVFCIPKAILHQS
HSV polymerase, sequence (P04293 whole entry): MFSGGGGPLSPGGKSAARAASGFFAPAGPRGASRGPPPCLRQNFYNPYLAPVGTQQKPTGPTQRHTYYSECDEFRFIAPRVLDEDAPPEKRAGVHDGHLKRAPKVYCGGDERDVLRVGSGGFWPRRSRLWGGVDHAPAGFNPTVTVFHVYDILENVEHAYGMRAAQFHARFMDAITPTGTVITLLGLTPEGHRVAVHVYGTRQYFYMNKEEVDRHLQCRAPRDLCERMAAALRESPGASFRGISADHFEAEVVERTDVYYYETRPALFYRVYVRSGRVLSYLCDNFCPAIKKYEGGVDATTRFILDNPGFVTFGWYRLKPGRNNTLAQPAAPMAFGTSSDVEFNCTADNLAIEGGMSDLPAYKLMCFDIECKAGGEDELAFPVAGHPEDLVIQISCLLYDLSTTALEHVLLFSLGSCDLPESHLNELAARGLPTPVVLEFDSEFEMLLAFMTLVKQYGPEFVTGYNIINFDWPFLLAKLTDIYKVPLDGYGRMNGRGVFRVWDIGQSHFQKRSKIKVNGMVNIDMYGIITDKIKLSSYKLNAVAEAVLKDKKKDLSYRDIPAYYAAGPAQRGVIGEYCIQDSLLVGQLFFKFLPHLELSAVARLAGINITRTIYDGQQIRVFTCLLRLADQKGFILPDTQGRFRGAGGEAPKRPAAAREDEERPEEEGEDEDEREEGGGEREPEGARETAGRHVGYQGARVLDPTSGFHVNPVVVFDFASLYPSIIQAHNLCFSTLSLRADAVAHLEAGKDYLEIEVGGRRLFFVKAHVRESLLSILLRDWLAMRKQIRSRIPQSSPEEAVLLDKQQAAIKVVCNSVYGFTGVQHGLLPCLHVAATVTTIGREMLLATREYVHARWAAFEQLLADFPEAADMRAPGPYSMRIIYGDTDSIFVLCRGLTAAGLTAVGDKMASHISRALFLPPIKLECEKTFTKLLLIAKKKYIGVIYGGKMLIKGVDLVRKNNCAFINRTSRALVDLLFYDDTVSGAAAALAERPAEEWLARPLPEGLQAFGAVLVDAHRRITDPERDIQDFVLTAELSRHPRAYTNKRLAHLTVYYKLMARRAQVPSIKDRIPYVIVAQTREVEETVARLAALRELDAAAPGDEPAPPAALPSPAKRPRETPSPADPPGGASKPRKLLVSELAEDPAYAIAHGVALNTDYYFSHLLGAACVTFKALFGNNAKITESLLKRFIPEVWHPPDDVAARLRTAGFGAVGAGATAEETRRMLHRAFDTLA

`Cn1cc(C(=O)NCc2ccc(Cl)cc2)c(=O)c2cc(CC3CCOCC3)cc(C#CCO)c21` [Example 1, N-(4-chlorobenzyl)-8-(3-hydroxy-1-propynyl)-1-methyl-4-oxo-6-(tetrahydro-2H-pyran-4-ylmethyl)-1,4-dihydro-3-quinolinecarboxamide] showed a melting point of 166 to 168 °C. The compound also yielded an IC50 against VZV polymerase of 0.18 µM. Further, the IC50 at HCMV polymerase was determined as 0.32 µM. Further, the IC50 at HSV polymerase is 0.25 µM.

Regarding `Cn1cc(C(=O)NCc2ccc(Cl)cc2)c(=O)c2cc(CC3CCOCC3)cc(C#CCCO)c21` [Example 2, N-(4-chlorobenzyl)-8-(4-hydroxy-1-butynyl)-1-methyl-4-oxo-6-(tetrahydro-2H-pyran-4-ylmethyl)-1,4-dihydro-3-quinolinecarboxamide], the melting point was in the range of 186 to 188 °C. On HCMV polymerase, it took 0.32 µM to reach half-maximal inhibition (IC50).

In the case of `CN(C)CC#Cc1cc(CC2CCOCC2)cc2c(=O)c(C(=O)NCc3ccc(Cl)cc3)cn(C)c12` [Example 3, N-(4-chlorobenzyl)-8-[3-(dimethylamino)-1-propynyl]-1-methyl-4-oxo-6-(tetrahydro-2H-pyran-4-ylmethyl)-1,4-dihydro-3-quinolinecarboxamide], the melting point fell in the range of 157 to 159 °C. This compound also displayed an IC50 against HCMV polymerase of 0.87 µM.

Turning to `CN(C)CC#Cc1cc(CN2CCOCC2)cc2c(=O)c(C(=O)NCc3ccc(Cl)cc3)cn(C)c12` [Example 5, N-(4-chlorobenzyl)-8-[3-(dimethylamino)-1-propynyl]-1-methyl-6-(4-morpholinylmethyl)-4-oxo-1,4-dihydro-3-quinolinecarboxamide], the melting point was in the range of 154 to 157 °C. Besides, the IC50 against HCMV polymerase was 1.6 µM.

The compound `Cn1cc(C(=O)NCc2ccc(Cl)cc2)c(=O)c2cc(CN3CCOCC3)cc(C#CCC[C@@H]3COC(=O)N3)c21` [Example 9, N-(4-chlorobenzyl)-1-methyl-6-(4-morpholinylmethyl)-4-oxo-8-{4-[(4R)-2-oxo-1,3-oxazolidin-4-yl]-1-butynyl}-1,4-dihydro-3-quinolinecarboxamide] showed a melting point of 171 to 173 °C. On HCMV polymerase, this compound yielded an IC50 of 0.55 µM.

`Cn1cc(C(=O)NCc2ccc(Cl)cc2)c(=O)c2cc(CN3CCOCC3)cc(C#CCF)c21` [Example 12, N-(4-chlorobenzyl)-8-(3-fluoroprop-1-ynyl)-1-methyl-6-(morpholin-4-ylmethyl)-4-oxo-1,4-dihydroquinoline-3-carboxamide] showed a melting point of 189 to 191 °C. At HCMV polymerase, this compound displayed an IC50 of 0.77 µM.

`Cc1cncn1CC#Cc1cc(CN2CCOCC2)cc2c(=O)c(C(=O)NCc3ccc(Cl)cc3)cn(C)c12` [Example 14, N-(4-chlorobenzyl)-1-methyl-8-[3-(5-methyl-1H-imidazol-1-yl)prop-1-ynyl]-6-(morpholin-4-ylmethyl)-4-oxo-1,4-dihydroquinoline-3-carboxamide] registered an IC50 on HCMV polymerase of 0.52 µM.

Compound `CC(O)CC#Cc1cc(CN2CCOCC2)cc2c(=O)c(C(=O)NCc3ccc(Cl)cc3)cn(C)c12` (stereo not drawn) [Example 18, N-(4-chlorobenzyl)-8-(4-hydroxypent-1-ynyl)-1-methyl-6-(morpholin-4-ylmethyl)-4-oxo-1,4-dihydroquinoline-3-carboxamide] yielded a melting point of 178 to 180 °C. At HCMV polymerase, the IC50 amounted to 0.61 µM.

The compound `Cn1cc(C(=O)NCc2ccc(Cl)cc2)c(=O)c2cc(CN3CCOCC3)cc(C#CCN3CCC(O)CC3)c21` [Example 19, N-(4-chlorobenzyl)-8-[3-(4-hydroxypiperidin-1-yl)prop-1-ynyl]-1-methyl-6-(morpholin-4-ylmethyl)-4-oxo-1,4-dihydroquinoline-3-carboxamide] returned a melting point of 180 to 183 °C. In addition, the IC50 at HCMV polymerase worked out at 1.01 µM.

For the compound `Cn1cc(C(=O)NCc2ccc(Cl)cc2)c(=O)c2cc(CN3CCOCC3)cc(C#CCN3CCC(O)C3)c21` (stereo not drawn) [Example 20, N-(4-chlorobenzyl)-8-[3-(3-hydroxypyrrolidin-1-yl)prop-1-ynyl]-1-methyl-6-(morpholin-4-ylmethyl)-4-oxo-1,4-dihydroquinoline-3-carboxamide], the melting point is 144 to 146 °C. On HCMV polymerase, this compound returned an IC50 of 1.02 µM.

`CN(CC#Cc1cc(CN2CCOCC2)cc2c(=O)c(C(=O)NCc3ccc(Cl)cc3)cn(C)c12)CC(O)CO` (stereo not drawn) [Example 21, N-(4-chlorobenzyl)-8-{3-[(2,3-dihydroxypropyl)(methyl)amino]prop-1-ynyl}-1-methyl-6-(morpholin-4-ylmethyl)-4-oxo-1,4-dihydroquinoline-3-carboxamide] returned a melting point of 140 to 142 °C. At HCMV polymerase, this compound showed an IC50 of 0.8 µM.

`CN(CC#Cc1cc(CN2CCOCC2)cc2c(=O)c(C(=O)NCc3ccc(Cl)cc3)cn(C)c12)CCO` [Example 22, N-(4-chlorobenzyl)-8-{3-[(2-hydroxyethyl)(methyl)amino]prop-1-ynyl}-1-methyl-6-(morpholin-4-ylmethyl)-4-oxo-1,4-dihydroquinoline-3-carboxamide] returned a melting point of 148 to 149 °C. In addition, the IC50 on HCMV polymerase was 0.82 µM.

As to `Cn1cc(C(=O)NCc2ccc(Cl)cc2)c(=O)c2cc(CN3CCOCC3)cc(C#CCC(CO)CO)c21` [Example 24, N-(4-chlorobenzyl)-8-[5-hydroxy-4-(hydroxymethyl)pent-1-ynyl]-1-methyl-6-(morpholin-4-ylmethyl)-4-oxo-1,4-dihydroquinoline-3-carboxamide], the melting point was 190 to 193 °C. The compound further showed an IC50 against HCMV polymerase of 0.56 µM.

`Cn1cc(C(=O)NCc2ccc(Cl)cc2)c(=O)c2cc(CN3CCOCC3)cc(C#CCN3CCCC(CO)C3)c21` (stereo not drawn) [Example 25, N-(4-chlorobenzyl)-8-{3-[3-(hydroxymethyl)piperidin-1-yl]prop-1-ynyl}-1-methyl-6-(morpholin-4-ylmethyl)-4-oxo-1,4-dihydroquinoline-3-carboxamide] displayed an IC50 against HCMV polymerase of 0.74 µM.

On HCMV polymerase, `Cn1cc(C(=O)NCc2ccc(Cl)cc2)c(=O)c2cc(CN3CCOCC3)cc(C#CCN3CCN(CCO)CC3)c21` [Example 26, N-(4-chlorobenzyl)-8-{3-[4-(2-hydroxyethyl)piperazin-1-yl]prop-1-ynyl}-1-methyl-6-(morpholin-4-ylmethyl)-4-oxo-1,4-dihydroquinoline-3-carboxamide] had an IC50 of 1.29 µM.

`Cn1cc(C(=O)NCc2ccc(Cl)cc2)c(=O)c2cc(CN3CCOCC3)cc(C#CCN3CCC[C@H]3CO)c21` [Example 27, N-(4-chlorobenzyl)-8-{3-[(2S)-2-(hydroxymethyl)pyrrolidin-1-yl]prop-1-ynyl}-1-methyl-6-(morpholin-4-ylmethyl)-4-oxo-1,4-dihydroquinoline-3-carboxamide] yielded an IC50 against HCMV polymerase of 0.94 µM.

For the compound `Cn1cc(C(=O)NCc2ccc(Cl)cc2)c(=O)c2cc(CN3CCOCC3)cc(C#CCN3CCCC(O)C3)c21` (stereo not drawn) [Example 28, N-(4-chlorobenzyl)-8-[3-(3-hydroxypiperidin-1-yl)prop-1-ynyl]-1-methyl-6-(morpholin-4-ylmethyl)-4-oxo-1,4-dihydroquinoline-3-carboxamide], the IC50 against HCMV polymerase is 0.82 µM.

The compound `Cn1cc(C(=O)NCc2ccc(Cl)cc2)c(=O)c2cc(CN3CCOCC3)cc(C#CCN3CCC[C@@H]3CO)c21` [Example 29, N-(4-chlorobenzyl)-8-{3-[(2R)-2-(hydroxymethyl)pyrrolidin-1-yl]prop-1-ynyl}-1-methyl-6-(morpholin-4-ylmethyl)-4-oxo-1,4-dihydroquinoline-3-carboxamide] gave an IC50 on HCMV polymerase of 0.73 µM.

In the case of `Cn1cc(C(=O)NCc2ccc(Cl)cc2)c(=O)c2cc(CN3CCOCC3)cc(C#CCN3CCCCC3CCO)c21` (stereo not drawn) [Example 30, N-(4-chlorobenzyl)-8-{3-[2-(2-hydroxyethyl)piperidin-1-yl]prop-1-ynyl}-1-methyl-6-(morpholin-4-ylmethyl)-4-oxo-1,4-dihydroquinoline-3-carboxamide], the IC50 against HCMV polymerase is 0.71 µM.

`CCCCN(CC#Cc1cc(CN2CCOCC2)cc2c(=O)c(C(=O)NCc3ccc(Cl)cc3)cn(C)c12)CCO` [Example 31, 8-{3-[butyl(2-hydroxyethyl)amino]prop-1-ynyl}-N-(4-chlorobenzyl)-1-methyl-6-(morpholin-4-ylmethyl)-4-oxo-1,4-dihydroquinoline-3-carboxamide]: the IC50 was 0.33 µM against VZV polymerase, 0.49 µM at HCMV polymerase and 0.55 µM against HSV polymerase.
